Laboratory results from patent publication EP0100051A1, “New derivatives of 1-alkylamine-(4(p-alkyloxy-benzamide)phenoxy)-2-propanol, having beta-sympatholytic activity, their salts, and production processes thereof” (A. Menarini S.a.S., priority 1982, dated 1984).

Columns and labels:
[1] = test system: β -chronotropic effects (cardiac frequency increase), β .-inotropic effects (systolic ejection velocity increase), and ,β2 effects (diastolic pressure lowering); experiment: antagonism of the effects of isoprenaline in the anaesthetized and reserpenized rat after oral administration (in vivo); conditions: for power gap between vivo and vitro: in vivo activity relative to in vitro activity; for inherent sympathicomimetic activity: cardiac frequency in the reserpenized animal at rest; for cardioselectivity: from the in vivo and in vitro results, β1 versus β2 effects of isoprenaline
[2] = test system: β chronotropic effects (cavy right atrium), β1 inotropic effects (cavy ventricle) and 2 effects (cavy trachea) of the isoprenaline; experiment: antagonism of the effects of isoprenaline on isolated tissues (in vitro); conditions: compared with the compounds of the invention
Source text: The beta-sympatholytic activity of the compounds under examination has been tested in vivo as antagonist to the β -chronotropic effects (cardiac frequency increase), β .-inotropic effects (systolic ejection velocity increase), and ,β2 effects (diastolic pressure lowering) of the isoprenaline upon the anaesthetized and reserpenized rat, after oral administration, and in vitro as antagonist to the β chronotropic effects (cavy right atrium), β1 inotropic effects (cavy ventricle) and 2 effects (cavy trachea) of the isoprenaline.

Q: What does the source list for CC(C)NCC(O)COc1cccc2ccccc12 (centres unmarked) [propranolol]?
A: power gap between vivo and vitro [1]: relevant decrease of the in vivo activity; beta-sympatholytic activity in vitro [2]: more active in vitro

Q: How did the inherent sympathicomimetic activity [1] turn out when CC(C)NCC(O)COc1ccc(NC(=O)c2ccc(Cl)cc2)cc1 (centres unmarked) [1 [4(-p--chlorobenzamide)phenoxy] -3-isopropylamine-2-propanol] was run?
A: Its inherent sympathicomimetic activity is “also present”.

Q: What about the cardioselectivity [1] of the same molecule?
A: The cardioselectivity was “also present”.

Q: And the “power gap between vivo and vitro” value [1]?
A: Its value is “lack of a significant power gap between vivo and vitro”.

Q: CC(=O)Nc1ccc(OCC(O)CNC(C)C)cc1 (centres unmarked) [practolol] was tested. Which inherent sympathicomimetic activity [1] did it give?
A: Its inherent sympathicomimetic activity is “also present”.

Q: And the cardioselectivity [1]?
A: Its cardioselectivity is “also present”.

Q: And the “power gap between vivo and vitro” value [1]?
A: Its value is “lack of a significant power gap between vivo and vitro”.

Q: CC(C)NCC(O)COc1ccc(NC(=O)c2ccccc2)cc1 (centres unmarked) [1-(4-benzamidephenoxy)-3-isopropylamine-2-propanol] was tested. Which inherent sympathicomimetic activity [1] did it give?
A: Its inherent sympathicomimetic activity is “also present”.

Q: And the cardioselectivity [1]?
A: The cardioselectivity was “also present”.

Q: What about the “power gap between vivo and vitro” value [1] of the same molecule?
A: The value was “lack of a significant power gap between vivo and vitro”.
